Converted amounts (≈) assume the structure as drawn.
What was measured:
[1] = Cytotoxicity against human A549 cells assessed as inhibition of cell viability after 48 hrs by MTT assay; assay type: functional, cell-based; details: A549, 48 h
[2] = test system: Staphylococcus aureus; assay: Antibacterial activity against Staphylococcus aureus after 24 hrs by broth dilution method; assay type: functional
[3] = test system: Aspergillus niger; assay: Antifungal activity against Aspergillus niger by agar streak dilution method; assay type: functional
[4] = Cytotoxicity against human HeLa cells assessed as inhibition of cell viability after 48 hrs by MTT assay; assay type: functional, cell-based
[5] = test system: Klebsiella pneumoniae; assay: Antibacterial activity against Klebsiella pneumoniae after 24 hrs by broth dilution method; assay type: functional
[6] = Cytotoxicity against human MCF7 cells assessed as inhibition of cell viability after 48 hrs by MTT assay; assay type: functional, cell-based; details: MCF7, 48 h
[7] = test system: Bacillus subtilis; assay: Antibacterial activity against Bacillus subtilis after 24 hrs by broth dilution method; assay type: functional
[8] = test system: Escherichia coli; assay: Antibacterial activity against Escherichia coli after 24 hrs by broth dilution method; assay type: functional
[9] = Antifungal activity against Penicillium notatum by agar streak dilution method; assay type: functional; details: Penicillium chrysogenum
[10] = Cytotoxicity against HEK293 cells assessed as inhibition of cell viability after 48 hrs by MTT assay; assay type: toxicity, cell-based; details: human

Row | SMILES | IC50 [1] [µM] | MIC [2] [µg/mL] | MIC [3] [µg/mL] | IC50 [4] [µM] | MIC [5] [µg/mL] | IC50 [6] [µM] | MIC [7] [µg/mL] | MIC [8] [µg/mL] | MIC [9] [µg/mL] | IC50 at 48 h [10] [µM]
1 | O=c1c2ccccc2nc2n1-c1ccccc1/C2=N/N=C1/C=C(O)CCC1 | 29.8 | 6.25 (≈ 17.5 µM) | 12.5 (≈ 35.1 µM) | 23.9 | 12.5 (≈ 35.1 µM) | 27.9 | 3.12 (≈ 8.77 µM) | 6.25 (≈ 17.5 µM) | 25 (≈ 70.1 µM) | –
2 | CC1(C)CC(O)=C/C(=N/N=C2/c3cc(Br)ccc3-n3c2nc2ccccc2c3=O)C1 | 46.3 | > 100 | 100 (≈ 216 µM) | 39.8 | > 100 | 40 | > 100 | > 100 | > 100 | –
3 | COc1ccc2c(c1)/C(=N/N=C(C)C=C(C)O)c1nc3ccccc3c(=O)n1-2 | 46.7 | 12.5 (≈ 33.4 µM) | > 100 | 49.1 | 50 (≈ 134 µM) | 47.9 | 50 (≈ 134 µM) | 50 (≈ 134 µM) | 100 (≈ 267 µM) | –
4 | CCO/C(O)=C/C(C)=N/N=C1/c2cc(Br)ccc2-n2c1nc1ccccc1c2=O | 40 | 1.56 (≈ 3.45 µM) | 6.25 (≈ 13.8 µM) | 36.7 | 12.5 (≈ 27.6 µM) | 36.6 | 3.12 (≈ 6.89 µM) | 6.25 (≈ 13.8 µM) | 3.12 (≈ 6.89 µM) | –
5 | COc1ccc2c(c1)/C(=N/N=C1/C=C(O)CCC1)c1nc3ccccc3c(=O)n1-2 | 36 | 3.12 (≈ 8.09 µM) | 100 (≈ 259 µM) | 32.1 | 6.25 (≈ 16.2 µM) | 32.7 | 6.25 (≈ 16.2 µM) | 12.5 (≈ 32.3 µM) | 12.5 (≈ 32.3 µM) | –
6 | CC(=O)N1CCN(c2ccc(OCC3COC(Cn4ccnc4)(c4ccc(Cl)cc4Cl)O3)cc2)CC1 (configuration not stated) [KETOCONAZOLE] | – | – | 3.12 (≈ 5.88 µM) | – | – | – | – | – | 3.12 (≈ 5.88 µM) | –
7 | N/N=C1/c2ccccc2-n2c1nc1ccccc1c2=O | 28.7 | 50 (≈ 191 µM) | 50 (≈ 191 µM) | 25.6 | 50 (≈ 191 µM) | 25.2 | > 100 | > 100 | > 100 | –
8 | N/N=C1/c2cc(Br)ccc2-n2c1nc1ccccc1c2=O | 23.1 | > 100 | 50 (≈ 147 µM) | 22.1 | 25 (≈ 73.3 µM) | 23.2 | 50 (≈ 147 µM) | > 100 | 50 (≈ 147 µM) | –
9 | CC(O)=CC(C)=N/N=C1/c2cc(Br)ccc2-n2c1nc1ccccc1c2=O | 31.1 | 50 (≈ 118 µM) | > 100 | 31.2 | > 100 | 33 | 50 (≈ 118 µM) | 50 (≈ 118 µM) | > 100 | –
10 | CC(C=C(O)c1ccccc1)=N/N=C1/c2ccccc2-n2c1nc1ccccc1c2=O | 17.6 | > 100 | 25 (≈ 61.5 µM) | 25.2 | > 100 | 26.2 | > 100 | > 100 | 25 (≈ 61.5 µM) | 68.1
11 | COc1ccc2c(c1)/C(=N/N=C1/C=C(O)c3ccccc31)c1nc3ccccc3c(=O)n1-2 | 63.5 | 1.56 (≈ 3.72 µM) | 50 (≈ 119 µM) | 62.3 | 12.5 (≈ 29.7 µM) | 60.9 | 3.12 (≈ 7.43 µM) | 6.25 (≈ 14.9 µM) | 50 (≈ 119 µM) | –
12 | COc1ccc2c(c1)/C(=N/N)c1nc3ccccc3c(=O)n1-2 | 31.2 | > 100 | > 100 | 29.2 | > 100 | 32.3 | > 100 | > 100 | 50 (≈ 171 µM) | –
